Results as given in patent US20220289766A1 (INFLAZOME LIMITED, priority 2019, published 2022).
pIC50: −log10 of the molar value. Where a name gives a salt, the structure may show the parent alone.

Columns and labels:
NLRP3 [1] = biological target: T1, NLRP3 (Homo sapiens, UniProt Q96P20); test: THP-1 cells pyroptosis assay; assay type: cell-based; design: Seed THP-1 cells (25,000 cells/well) containing 1.0 μg/ml LPS in 40 μl of RPMI medium; host or cells: THP-1 cells; settings: LPS 1 μg/ml, compound 3 hrs, nigericin 5 μM 1 hr, resazurin readout
Description: THP-1 cells (ATCC #TIB-202) were grown in RPMI containing L-glutamine (Gibco #11835) supplemented with 1 mM sodium pyruvate (Sigma #S8636) and penicillin (100 units/ml)/streptomycin (0.1 mg/ml) (Sigma #P4333) in 10% Fetal Bovine Serum (FBS) (Sigma #F0804). The cells were routinely passaged and grown to confluency (˜10^6 cells/ml). On the day of the experiment, THP-1 cells were harvested and resuspended into RPMI medium (without FBS). The cells were then counted and viability ([…]) checked by Trypan blue (Sigma #T8154). Appropriate dilutions were made to give a concentration of 625,000 cells/ml. To this diluted cell solution was added LPS (Sigma #L4524) to give a 1 μg/ml Final Assay Concentration (FAC). 40 μl of the final preparation was aliquoted into each well of a 96-well plate. The plate thus prepared was used for compound screening.
The following method step-by-step assay was followed for compound screening. • 1. Seed THP-1 cells (25,000 cells/well) containing 1.0 μg/ml LPS in 40 μl of RPMI medium (without FBS) in 96-well, black walled, clear bottom cell culture plates coated with poly-D-lysine (VWR #734-0317) • 2. Add 5 μl compound (8 points half-log dilution, with 10 μM top dose) or vehicle (DMSO 0.1% FAC) to the appropriate wells • 3. Incubate for 3 hrs at 37° C., 5% CO2 • 4. Add 5 μl nigericin (Sigma #N7143) (FAC 5 μM) to all wells • 5. Incubate for 1 hr at 37° C., 5% CO2 • 6. At the end of the incubation period, spin plates at 300×g for 3 mins and remove supernatant • 7. Then add 50 μl of resazurin (Sigma #R7017) (FAC 100 μM resazurin in RPMI medium without FBS) and incubate plates for a further 1-2 hrs at 37° C. and 5% CO2 • 8. Plates were read in an Envision reader at Ex 560 nm and Em 590 nm • 9. IC50 data is fitted to a non-linear regression equation (log inhibitor vs response-variable slope 4-parameters)

NLRP3 [2] = biological target: T1, NLRP3; test: Human whole blood IL-1β release assay; assay type: cell-based; design: Plate out 80 μl of whole blood containing 1 μg/ml of LPS in 96-well, clear bottom cell culture plate; from tissue; host or cells: human whole blood from healthy donors; settings: LPS 1 μg/ml, compound 3 hrs, nigericin 10 μM 1 hr, IL-1β by AlphaLisa, read-out: HWB IC50
Description: For systemic delivery, the ability to inhibit NLRP3 when the compounds are present within the bloodstream is of great importance. For this reason, the NLRP3 inhibitory activity of a number of compounds in human whole blood was investigated in accordance with the following protocol.
Human whole blood in Li-heparin tubes was obtained from healthy donors from a volunteer donor panel. • 1. Plate out 80 μl of whole blood containing 1 μg/ml of LPS in 96-well, clear bottom cell culture plate (Corning #3585) • 2. Add 10 μl compound (8 points half-log dilution with 10 μM top dose) or vehicle (DMSO 0.1% FAC) to the appropriate wells • 3. Incubate for 3 hrs at 37° C., 5% CO2 • 4. Add 10 μl nigericin (Sigma #N7143) (10 μM FAC) to all wells • 5. Incubate for 1 hr at 37° C., 5% CO2 • 6. At the end of the incubation period, spin plates at 300×g for 5 mins to pellet cells and remove […] of supernatant and add to 96-well v-bottom plates for IL-1β analysis (note: these plates containing the supernatants can be stored at −80° C. to be analysed at a later date) • 7. IL-1β was measured according to the manufacturer protocol (Perkin Elmer-AlphaLisa IL-1 Kit AL220F-5000) • 8. IC50 data is fitted to a non-linear regression equation (log inhibitor vs response-variable slope 4-parameters)

T1 sequence (Q96P20 whole entry): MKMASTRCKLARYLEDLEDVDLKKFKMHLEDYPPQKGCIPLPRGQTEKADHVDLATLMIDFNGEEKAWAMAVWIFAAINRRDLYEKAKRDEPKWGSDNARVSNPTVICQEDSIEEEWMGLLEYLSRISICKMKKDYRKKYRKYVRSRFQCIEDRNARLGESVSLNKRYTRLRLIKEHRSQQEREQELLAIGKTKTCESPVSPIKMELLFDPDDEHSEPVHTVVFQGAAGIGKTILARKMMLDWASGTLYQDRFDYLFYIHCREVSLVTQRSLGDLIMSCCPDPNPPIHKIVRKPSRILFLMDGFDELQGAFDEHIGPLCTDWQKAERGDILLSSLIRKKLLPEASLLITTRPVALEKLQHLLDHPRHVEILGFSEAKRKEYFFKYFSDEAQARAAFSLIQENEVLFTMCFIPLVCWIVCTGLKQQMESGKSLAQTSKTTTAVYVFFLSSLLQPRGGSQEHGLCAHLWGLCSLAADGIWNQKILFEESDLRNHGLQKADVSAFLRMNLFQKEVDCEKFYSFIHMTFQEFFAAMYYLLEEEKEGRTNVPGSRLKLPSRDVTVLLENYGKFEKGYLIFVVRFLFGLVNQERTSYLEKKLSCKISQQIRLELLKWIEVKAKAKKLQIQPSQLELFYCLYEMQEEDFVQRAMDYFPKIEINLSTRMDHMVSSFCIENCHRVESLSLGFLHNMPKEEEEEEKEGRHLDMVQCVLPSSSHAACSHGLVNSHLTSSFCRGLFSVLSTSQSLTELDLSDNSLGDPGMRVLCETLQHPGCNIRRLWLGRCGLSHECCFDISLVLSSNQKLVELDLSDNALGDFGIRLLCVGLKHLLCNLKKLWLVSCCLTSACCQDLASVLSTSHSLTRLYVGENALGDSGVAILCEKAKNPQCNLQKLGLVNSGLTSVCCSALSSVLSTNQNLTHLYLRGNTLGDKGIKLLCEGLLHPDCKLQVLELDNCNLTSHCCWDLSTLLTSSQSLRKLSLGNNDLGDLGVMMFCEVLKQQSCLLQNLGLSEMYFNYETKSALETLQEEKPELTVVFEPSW

In the case of CC1(C)COc2cc(ccn2)-c2c(F)cc3c(c2NC(=O)NS(=O)(=O)c2ccn1n2)CCC3 [Example 34, 3-fluoro-19,19-dimethyl-21-oxa-14λ^6-thia-11,13,18,23,27-pentaazapentacyclo-[20.3.1.1^15,18.0^2,10.0^5,9]heptacosa-1(25),2,4,9,15(27),16,22(26),23-octaene-12,14,14-trione], the pIC50 (NLRP3 [1]) was ≥ 7.00 and the pIC50 (NLRP3 [2]) was 6.30 to 7.00.

Cc1cc2cc(n1)OCC(C)(C)n1ccc(n1)S(=O)(=O)NC(=O)Nc1c-2ccc2c1CCC2 [Example 36, 19,19,24-trimethyl-21-oxa-14λ^6-thia-11,13,18,23,27-pentaazapentacyclo-[20.3.1.1^15,18.0^2,10.0^5,9]heptacosa-1(26),2,4,9,15(27),16,22,24-octaene-12,14,14-trione] was tested, and the pIC50 (NLRP3 [1]) was ≥ 7.00 and the pIC50 (NLRP3 [2]) was 6.00 to 6.30.

For Cc1cc2c(c3c1-c1ccnc(c1)OCC(C)(C)n1ccc(n1)S(=O)(=O)NC(=O)N3)CCO2 [Example 37, 3,19,19-trimethyl-6,21-dioxa-14λ^6-thia-11,13,18,23,27-pentaaza-pentacyclo[20.3.1.1^15,18.0^2,10.0^5,9]-heptacosa-1(25),2(10),3,5(9),15(27),16,22(26),23-octaene-12,14,14-trione, sodium salt], the pIC50 (NLRP3 [1]) was ≥ 7.00 and the pIC50 (NLRP3 [2]) was ≥ 7.00.

CC1(C)COc2cc(c(F)cn2)-c2ccc3c(c2NC(=O)NS(=O)(=O)c2ccn1n2)CCC3 [Example 38, 25-fluoro-19,19-dimethyl-21-oxa-14λ^6-thia-11,13,18,23,27-pentaaza-pentacyclo[20.3.1.1^15,18.0^2,10.0^5,9]-heptacosa-1(25),2,4,9,15(27),16,22(26),23-octaene-12,14,14-trione, sodium salt] showed a pIC50 (NLRP3 [1]) of 6.30 to 7.00 and a pIC50 (NLRP3 [2]) of 5.30 to 6.00.

For O=C1Nc2c(ccc3c2CCC3)-c2ccnc(c2)OCC2(CCOCC2)n2ccc(n2)S(=O)(=O)N1 [Example 39, 21′-oxa-14′λ^6-thia-11′,13′,18′,23′,27′-pentaaza-spiro[oxane-4,19′-pentacyclo-[20.3.1.1^15,18.0^2,10.0^5,9]-heptacosan]-1′(25′),2′,4′,9′,15′(27′),16′,22′(26′),23′-octaene-12′,14′,14′-trione], the pIC50 (NLRP3 [1]) was ≥ 7.00 and the pIC50 (NLRP3 [2]) was 6.30 to 7.00.

With O=C1Nc2c3c(cc(F)c2-c2ccnc(c2)OCCn2cc(F)c(n2)S(=O)(=O)N1)CCC3 [Example 40, 3,16-difluoro-21-oxa-14λ^6-thia-11,13,18,23,27-pentaaza-pentacyclo[20.3.1.1^15,18.0^2,10.0^5,9]-heptacosa-1(25),2(10),3,5(9),15(27),16,22(26),23-octaene-12,14,14-trione] the pIC50 (NLRP3 [1]) was ≥ 7.00 and the pIC50 (NLRP3 [2]) was 6.30 to 7.00.

CC1(C)COc2cc(ccn2)-c2c(F)cc3c(c2NC(=O)NS(=O)(=O)c2nn1cc2F)CCC3 [Example 41, 3,16-difluoro-19,19-dimethyl-21-oxa-14λ^6-thia-11,13,18,23,27-pentaazapentacyclo-[20.3.1.1^15,18.0^2,10.0^5,9]heptacosa-1(25),2,4,9,15(27),16,22(26),23-octaene-12,14,14-trione, sodium salt] was tested, and the pIC50 (NLRP3 [1]) was ≥ 7.00 and the pIC50 (NLRP3 [2]) was 6.30 to 7.00.

O=C1Nc2c(ccc3c2CCC3)-c2cc(F)nc(c2)OCCn2cc(F)c(n2)S(=O)(=O)N1 [Example 42, 16,24-difluoro-21-oxa-14λ^6-thia-11,13,18,23,27-pentaazapentacyclo-[20.3.1.1^15,18.0^2,10.0^5,9]heptacosa-1(26),2,4,9,15(27),16,22,24-octaene-12,14,14-trione] was tested, and the pIC50 (NLRP3 [1]) was ≥ 7.00 and the pIC50 (NLRP3 [2]) was 6.30 to 7.00.

Work on CC(C)c1cc(F)cc2c1NC(=O)NS(=O)(=O)c1ccn(n1)C(C)(C)COc1cc-2ccn1 [Example 43, 4-fluoro-16,16-dimethyl-6-(propan-2-yl)-18-oxa-11λ^6-thia-8,10,15,20,24-pentaazatetracyclo-[17.3.1.1^12,15.0^2,7]tetracosa-1(22),2(7),3,5,12(24),13,19(23),20-octaene-9,11,11-trione] yielded a pIC50 (NLRP3 [1]) of 6.30 to 7.00 and a pIC50 (NLRP3 [2]) of 6.30 to 7.00.

For CC(C)c1cc(F)cc2c1NC(=O)NS(=O)(=O)c1nn(cc1F)CCOc1cc-2ccn1 [Example 44, 4,13-difluoro-6-(propan-2-yl)-18-oxa-11λ^6-thia-8,10,15,20,24-pentaazatetracyclo[17.3.1.1^12,15.0^2,7]-tetracosa-1(22),2(7),3,5,12(24),13,19(23),20-octaene-9,11,11-trione, sodium salt], the pIC50 (NLRP3 [1]) was ≥ 7.00 and the pIC50 (NLRP3 [2]) was 6.30 to 7.00.

In the case of Cc1c2ccnc1OCC(C)(C)n1ccc(n1)S(=O)(=O)NC(=O)Nc1c-2ccc2c1CCC2 [Example 45, 19,19,26-trimethyl-21-oxa-14λ^6-thia-11,13,18,23,27-pentaaza-pentacyclo[20.3.1.1^15,18.0^2,10.0^5,9]-heptacosa-1(25),2,4,9,15(27),16,22(26),23-octaene-12,14,14-trione, sodium salt], the pIC50 (NLRP3 [1]) was 5.30 to 6.00 and the pIC50 (NLRP3 [2]) was 5.30 to 6.00.

O=C1Nc2c(ccc3c2CCC3)-c2ccnc(c2)OC2CCC(C2)Cn2ccc(n2)S(=O)(=O)N1 (centres unmarked) [Example 46, 24-oxa-14λ^6-thia-11,13,18,26,31-pentaazahexacyclo-[23.3.1.1^15,18.1^20,23.0^2,10.0^5,9]hentriaconta-1(28),2,4,9,15(31),16,25(29),26-octaene-12,14,14-trione] gave a pIC50 (NLRP3 [1]) of 5.30 to 6.00 and a pIC50 (NLRP3 [2]) of 5.30 to 6.00.

With CC(C)c1cnn2c1NC(=O)NS(=O)(=O)c1nn(cc1F)C(C)(C)COc1cc-2ccn1 [Example 47, 12-fluoro-15,15-dimethyl-5-(propan-2-yl)-17-oxa-10λ^6-thia-2,3,7,9,14,19,23-heptaazatetracyclo-[16.3.1.1^11,14.0^2,6]tricosa-1(21),3,5,11(23),12,18(22),19-heptaene-8,10,10-trione] the pIC50 (NLRP3 [1]) was 6.00 to 6.30 and the pIC50 (NLRP3 [2]) was 6.00 to 6.30.
